Experimental data: patent publication US20150241429A1, “IRHOM2 INHIBITION FOR THE TREATMENT OF COMPLEMENT MEDIATED DISORDERS” (HOSPITAL FOR SPECIAL SURGERY, priority 2012, published 2015)

How the values were obtained:
[1] = test system: macrophages; test: Phagocytosis of IgG-opsonized red blood cells by macrophages; assay type: cell-based; settings: inhibition of TACE with MM
Experimental: FIG. 5. (A) TACE-mediated cleavage of CD62L on the cell surface of freshly isolated human neutrophils (representative of 2 experiments). Surface expression of CD62L was assessed by flow cytometry following stimulation with 1 μg/mL of C5a or 25 ng/mL PMA for 20 min in the presence or absence of Marimastat (MM). […] Opsonized sheep red blood cells were stained with CFSE and total fluorescence intensity (TFI) was measured by flow cytometry, n=3, mean+/−SEM; * indicates p>0.05. (C) Release of reactive oxygen species by human monocytes when stimulated with C5a in the presence or absence of Marimastat. ROS was quantified by FACS by measuring the mean intensity of the ROS-reactive dye DHR. […] The Fc domains of pathogenic IgG initiate tissue damage by binding FcγR on effector cells and by activating complement, and FcγRs are critical for the pathogenesis of inflammatory arthritis in the K/B×N serum model (Ji et al., 2002a).

[2] = test system: human monocytes; test: C5a-stimulated oxidative burst (ROS release) in human monocytes; assay type: cell-based; settings: C5a in presence or absence of Marimastat, ROS by FACS (DHR)
Experimental: FIG. 5. (A) TACE-mediated cleavage of CD62L on the cell surface of freshly isolated human neutrophils (representative of 2 experiments). Surface expression of CD62L was assessed by flow cytometry following stimulation with 1 μg/mL of C5a or 25 ng/mL PMA for 20 min in the presence or absence of Marimastat (MM). (B) Quantification of total sheep red blood cells phagocytosed by wild type or Tace−/− bone marrow macrophages. Opsonized sheep red blood cells were stained with CFSE and total fluorescence intensity (TFI) was measured by flow cytometry, n=3, mean+/−SEM; * indicates p>0.05. (C) Release of reactive oxygen species by human monocytes when stimulated with C5a in the presence or absence of Marimastat. ROS was quantified by FACS by measuring the mean intensity of the ROS-reactive dye DHR. […] The Fc domains of pathogenic IgG initiate tissue damage by binding FcγR on effector cells and by activating complement, and FcγRs are critical for the pathogenesis of inflammatory arthritis in the K/B×N serum model (Ji et al., 2002a).

[3] = test system: iRhom2; test: iRhom2 expression in ex vivo cultures of RA synovial macrophages; assay type: cell-based, human; settings: RA synovial macrophages incubated overnight ± etanercept, n=8
Experimental: FIG. 2. Production of TNFα and other pro-inflammatory molecules is enhanced by TNFα shedding. (A) Quantification of mRNA levels of the indicated genes by qPCR following 30 min pre-treatment with 10 μg/ml etanercept and stimulation with C5a (representative of 3 experiments). (B) qPCR of iRhom2 mRNA in human monocytes treated for the indicated time periods with hTNFα (representative of 4 experiments). (C) Relative iRhom2 expression in RA synovial macrophages compared to macrophages from normal control patients, n=7 for control, and n=8 for RA patients (Nonparametric Mann-Whitney U test) (Gordon et al., 2012). (D) iRhom2 expression in synovial macrophages from RA patients following incubation overnight±etanercept, shown as percent of expression in freshly isolated cells, n=8. […] (F) Decreased TNFα release from C5a, IC and IC+C5a-stimulated cells treated with iR2 siRNA or TACE siRNA compared to untreated controls (representative of 3 independent experiments, mean±s.d. of samples stimulated in duplicates). *: p<0.05.
This, in turn, would also reduce the production of TNFα-dependent cytokines and of iRhom2, a crucial positive regulator of TACE (Adrain et al., 2012; McIlwain et al., 2012; Siggs et al., 2012).

Compound | opsonization (internalization of IgG-opsonized red blood cells) [1] | C5a-stimulated oxidative burst [2] | iRhom2 expression [3]
CNC(=O)[C@@H](NC(=O)[C@H](CC(C)C)[C@H](O)C(=O)NO)C(C)(C)C [MM, Marimastat] | did not alter | did not alter | 
etanercept |  |  | substantially reduced
